# Data: patent US8658183B2, “Antimicrobial parenteral formulation” (Taigen Biotechnology Company, Ltd., priority 2007, dated 2014)
# Like-named read-outs stand apart in the source and are kept apart here.
# Experiments:
# [1] = 5 mg/mL in 0.9% saline
# Description: The solution was filtered and transferred to 100-mL polypropylene bottles. The bottles were capped, sealed, sterilized at 110° C. for 35 min, and stored at 60° C. oven. The solution in the bottles was analyzed on days 0, 5, and 10.
# [2] = 5 mg/mL in 5% dextrose
# Description: The solution was filtered and transferred to in 100-mL polypropylene bottles. The bottles were capped, sealed, sterilized at 110° C. for 35 min, and stored at 60° C. oven. The solution in the bottles was analyzed on days 0, 5, and 10.
# [3] = Long-term and accelerated storage stability of Compound 1 saline formulation; type: physicochemical; conditions: 5 mg/mL (free base) in 0.9% saline
# Description: At each sampling point (marked as “X” in the above table), samples were evaluated for their appearance, color, clarity, pH, UV absorption, assay and impurity.
# S. pneumoniae Stp 6301 = test: In vivo antibacterial efficacy, mouse pulmonary infection model
# Description: The in vivo antibacterial efficacy of Compound 1 was evaluated in a mouse model. Mice were anesthetized and infected intranasally with a lethal amount of S. pneumoniae Stp 6301. Twelve, eighteen, and twenty-four hours after the infection, a composition containing Compound 1 or moxifloxacin (as a positive control), 0.7% lactic acid, and 3% dextrose was administered subcutaneously to the mice at a total dose of 50, 25, 12.5, or 6.25 mg/kg. Half of the treated mice were euthanized four hours after the last treatment of Compound 1 or moxifloxacin and their blood and lung tissues were collected. The number of viable bacteria in the blood and lung tissues was then determined. The lung tissues were also subjected to histopathologic evaluation. The other half of the mice were monitored for 6 days and the number of the surviving mice was recorded.
# [4] = Effect of lower temperature (−15° C.) on Compound 1 saline formulation; type: physicochemical; conditions: 5 mg/mL in 0.9% saline
# [5] = Effect of temperature and time during sterilization on Compound 1 saline formulation; type: physicochemical; conditions: 0.9% saline
# Description: To the solution was added 1.5 g of activated charcoal (0.05% g/mL). The mixture was stirred for 15 min and filtered. The filtrate was added to a serious of 100-mL polypropylene bottles. The filled bottles were capped, sealed, and divided into four groups (7 bottles/group).
# [6] = Effect of iron content on Compound 1 saline formulation; type: physicochemical; conditions: 5 mg/mL in 0.9% saline, filtered, sterilized
# Description: The solution was equally divided into 2 portions. To one portion was added 0.25 g activated charcoal and to the other was added 0.25 g activated charcoal and 0.1 g of iron powder. Each of the resulting mixture was stirred and filtered to a 100-mL polypropylene bottle.
# Proteus mirabilis = test: In vitro antibacterial activity, agar dilution; type: cell-based; conditions: clinical isolates
# Description: (§1) Various bacterial species, such as Gram positive bacteria (e.g., Clostridium, Staphylococcus and Streptococcus), Gram negative bacteria (e.g., Moraxella, Haemophilus, Pseudomonas, Proteus, and Bacteriodes), anaerobic and atypical pathogens, were isolated from clinical samples. The antibacterial activity of Compound of Formula I against these bacterial species were determined using agar dilution assays described in the U.S. National Committee for Clinical Laboratory, M7-A6, 2003, and M11-A5, 2001.
# S. pneumoniae = test: In vitro antibacterial activity, agar dilution; type: cell-based
# Description: as §1
# Neisseria gonorrhoeae = test: In vitro antibacterial activity, agar dilution; type: cell-based; conditions: clinical isolates
# Description: as §1
# Haemophilus influenzae = test: In vitro antibacterial activity, agar dilution; type: cell-based; conditions: clinical isolates
# Description: as §1
# E. coli = test: In vitro antibacterial activity, agar dilution; type: cell-based; conditions: clinical isolates
# Description: as §1
# [7] = tested on: Gram positive, Gram negative, anaerobic, and atypical pathogens; test: In vitro antibacterial activity, agar dilution; type: cell-based; conditions: clinical isolates
# Description: as §1
# Pseudomonas aeruginosa = test: In vitro antibacterial activity, agar dilution; type: cell-based; conditions: clinical isolates
# Description: as §1
# Clostridium difficile = test: In vitro antibacterial activity, agar dilution; type: cell-based; conditions: anaerobic pathogen, clinical isolates
# Description: as §1
# Klebsiella pneumoniae = test: In vitro antibacterial activity, agar dilution; type: cell-based; conditions: clinical isolates
# Description: as §1
# Moraxella catarrhalis = test: In vitro antibacterial activity, agar dilution; type: cell-based; conditions: clinical isolates
# Description: as §1
# Bacteroides species = test: In vitro antibacterial activity, agar dilution; type: cell-based; conditions: anaerobic pathogens, clinical isolates
# Description: as §1
# [8] = tested on: methicillin-susceptible S. aureus (MSSA); test: In vitro antibacterial activity, agar dilution; type: cell-based
# Description: as §1
# enteric organisms = test: In vitro antibacterial activity, agar dilution; type: cell-based; conditions: clinical isolates
# Description: as §1
# staphylococci = test: In vitro antibacterial activity, agar dilution; type: cell-based, Staphylococcus
# Description: as §1
# [9] = Effect of pH on Compound 1 saline formulation; type: physicochemical; conditions: 5 mg/mL in 0.9% saline
# [10] = Effect of pH on Compound 1 saline formulation; type: physicochemical
# Description: 2000 mL solution of Compound 1 in 0.9% saline was prepared in the same manner as described above. The solution was equally divided into 6 portions. The pH values for the 6 portions were adjusted to 2.43, 3.00, 3.76, 4.51, 6.01 and 7.13 by adding dilute hydrochloric acid or sodium hydroxide. The appearance and content of solutions were analyzed and shown below.
# streptococci = test: In vitro antibacterial activity, agar dilution; type: cell-based, Streptococcus
# Description: as §1
# [11] = for Appearance: 5 mg/mL (free base) in 0.9% saline, light box 4500Lx+/−500Lx; for UV Absorption: compared with Standard; for UV Absorption / pH Value: intense light 4500Lx+/−500Lx
# [12] = Effect of activated charcoal on Compound 1 saline formulation; conditions: 5 mg/mL in 0.9% NaCl
# MRSA = test: In vitro antibacterial activity, agar dilution; type: cell-based, S. aureus
# Description: as §1
# [13] = 0 day, after sterilization (110° C., 35 min)
# [14] = sterile temperature N/A (control group)
# [15] = activated charcoal and iron powder added
# [16] = activated charcoal, no iron powder
# [17] = 5 mg/mL in 0.9% saline, pH 3.00
# [18] = 5 mg/mL in 0.9% saline, pH 3.76 (no acid/base added)
# [19] = 5 mg/mL in 0.9% saline, pH 6.01
# [20] = activated charcoal added 0.02% (g/mL)
# [21] = activated charcoal added 0.05% (g/mL)
# [22] = activated charcoal added 0.5% (g/mL)
compound,measurement,setting,value
"COc1c(N2C[C@@H](C)C[C@H](N)C2)ccc2c(=O)c(C(=O)O)cn(C3CC3)c12 [Compound 1, (3S,5S)-7-[3-amino-5-methyl-piperidinyl]-1-cyclopropyl-1,4-dihydro-8-methoxy-4-oxo-3-quinolinecarboxylic acid]",Appearance,"[1]; sterilized, 0 day",Clear yellow
same,Comparative content of Compound 1 (%),"[1]; sterilized, 0 day",102.6%
same,Total Impurity (%),"[1]; sterilized, 0 day",0.378%
same,pH Value,"[1]; sterilized, 0 day",3.90
same,Appearance,[1]; 5 days at 60° C.,Clear yellow
same,Comparative content of Compound 1 (%),[1]; 5 days at 60° C.,103.2%
same,Total Impurity (%),[1]; 5 days at 60° C.,0.375%
same,pH Value,[1]; 5 days at 60° C.,3.88
same,Appearance,[1]; 10 days at 60° C.,Clear yellow
same,Comparative content of Compound 1 (%),[1]; 10 days at 60° C.,104.0%
same,Total Impurity (%),[1]; 10 days at 60° C.,0.410%
same,pH Value,[1]; 10 days at 60° C.,3.88
same,Appearance,[2]; [13],Clear yellow
same,Comparative content of Compound 1 (%),[2]; [13],97.8%
same,pH,[2]; [13],3.88
same,Appearance,"[2]; 0 day, before sterilization",Clear yellow
same,Comparative content of Compound 1 (%),"[2]; 0 day, before sterilization",100.4%
same,pH,"[2]; 0 day, before sterilization",3.89
same,Appearance,[2]; 5 days at 60° C.,Dark yellow
same,Comparative content of Compound 1 (%),[2]; 5 days at 60° C.,96.0%
same,pH,[2]; 5 days at 60° C.,4.03
same,Appearance,[2]; 10 days at 60° C.,Brown
same,Comparative content of Compound 1 (%),[2]; 10 days at 60° C.,94.2%
same,pH,[2]; 10 days at 60° C.,4.08
same,"Changes in appearance, color, clarity, pH, UV absorption, assay and impurity","[3]; 25° C., 60% RH, 12 months",No significant changes
same,"Changes in appearance, color, clarity, pH, UV absorption, assay and impurity","[3]; 40° C., 20% RH, 6 months",No significant changes
same,survival,"S. pneumoniae Stp 6301; lethal intranasal infection, s.c. total dose 50, 25, 12.5 or 6.25 mg/kg (all tested levels), monitored 6 days",100%
same,viable bacteria in lung and blood,"S. pneumoniae Stp 6301; mice infected intranasally, s.c. 12, 18, 24 h after infection, total dose 50, 25, 12.5 or 6.25 mg/kg (all levels), 4 h after last treatment, vs vehicle-treated controls",significantly reduced
same,efficacy compared with moxifloxacin,"S. pneumoniae Stp 6301; same dosage levels, pulmonary infection model",more efficacious than moxifloxacin
same,Appearance,[4]; 0 day at −15° C.,Clear yellow
same,Content,[4]; 0 day at −15° C.,102.6
same,Total Impurity (%),[4]; 0 day at −15° C.,0.378%
same,pH Value,[4]; 0 day at −15° C.,3.90
same,Appearance,[4]; 5 days at −15° C.,Clear yellow
same,Content,[4]; 5 days at −15° C.,102.8
same,Total Impurity (%),[4]; 5 days at −15° C.,0.370%
same,pH Value,[4]; 5 days at −15° C.,3.89
same,Appearance,[4]; 10 days at −15° C.,Clear yellow
same,Content,[4]; 10 days at −15° C.,103.5
same,Total Impurity (%),[4]; 10 days at −15° C.,0.373%
same,pH Value,[4]; 10 days at −15° C.,3.89
same,"Appearance, compound content, pH and total impurity (summary in words)",[4]; −15° C. for 10 days,maintained the same
same,Content (%),[5]; [14],95.20%
same,Total Impurity (%),[5]; [14],0.167%
same,pH Value,[5]; [14],3.86
same,Content (%),[5]; sterilization 105° C./35 min,96.44%
same,Total Impurity (%),[5]; sterilization 105° C./35 min,0.198%
same,pH Value,[5]; sterilization 105° C./35 min,3.86
same,Content (%),[5]; sterilization 110° C./35 min,95.86%
same,Total Impurity (%),[5]; sterilization 110° C./35 min,0.240%
same,pH Value,[5]; sterilization 110° C./35 min,3.86
same,Content (%),[5]; sterilization 115° C./35 min,95.98%
same,Total Impurity (%),[5]; sterilization 115° C./35 min,0.509%
same,pH Value,[5]; sterilization 115° C./35 min,3.85
same,Appearance,[6]; [15],Reddish Brown
same,pH,[6]; [15],3.77
same,Appearance,[6]; [16],Light yellow
same,pH,[6]; [16],3.78
same,MIC90,Proteus mirabilis,0.5 µg/mL
same,MIC90,S. pneumoniae; macrolide-resistant S. pneumoniae isolates,0.12 µg/mL
same,MIC90,S. pneumoniae; penicillin-resistant S. pneumoniae isolates,0.12 µg/mL
same,MIC90,S. pneumoniae; susceptible S. pneumoniae isolates,0.12 µg/mL
same,MIC90,Neisseria gonorrhoeae,0.06 µg/mL
same,MIC90,Haemophilus influenzae,0.12 µg/mL
same,MIC90,E. coli,0.12 µg/mL
same,antibacterial activity (in words),[7],"potent, broad-spectrum antibacterial activity"
same,antibacterial activity (in words),Pseudomonas aeruginosa,active against many isolates
same,antibacterial activity (in words),Clostridium difficile,active
same,MIC90,Klebsiella pneumoniae,1 µg/mL
same,MIC90,Moraxella catarrhalis,0.03 µg/mL
same,antibacterial activity (in words),Bacteroides species,active
same,MIC90,[8]; ciprofloxacin-resistant MSSA clinical isolates,0.5 µg/mL
same,MIC90,[8]; ciprofloxacin-sensitive MSSA clinical isolates,0.06 µg/mL
same,antibacterial activity (in words),enteric organisms,active against most enteric organisms
same,MIC values,staphylococci; all staphylococci in this study,< 2 µg/mL
same,antibacterial activity (in words),staphylococci; including methicillin-resistant S. aureus (MRSA),especially active
same,Appearance,[9]; pH 2.17,clear yellow solution
same,Comparative content of Compound 1 (%),[9]; pH 2.17,96.68%
same,Appearance,[9]; pH 4.50,clear yellow solution
same,Comparative content of Compound 1 (%),[9]; pH 4.50,101.14%
same,Appearance,[9]; pH 6.60,White precipitate
same,pH Value,"[10]; 5 mg/mL in 0.9% saline, no acid/base added",3.76
same,Appearance,[10]; [17],clear yellow solution
same,Comparative content of Compound 1 (%),[10]; [17],94.87%
same,Appearance,[10]; [18],clear yellow solution
same,Comparative content of Compound 1 (%),[10]; [18],103.62%
same,Appearance,[10]; [19],clear yellow solution
same,Comparative content of Compound 1 (%),[10]; [19],99.63%
same,pH at which Compound 1 precipitated,[10]; 5 mg/mL in a saline solution,6.6
same,MIC values,streptococci; all streptococci in this study,< 1 µg/mL
same,antibacterial activity (in words),streptococci; including multi-resistant S. pneumoniae,especially active
same,Appearance,[11]; 0 day,Clear yellow
same,Appearance,[11]; 5 days,Clear yellow
same,Appearance,[11]; 10 days,Clear yellow
same,UV Absorption,[11]; 0 day,Consist with
same,UV Absorption,[11]; 5 days,Consist with
same,UV Absorption,[11]; 10 days,Consist with
same,pH Value,[11]; 0 day,3.90
same,pH Value,[11]; 5 days,3.89
same,pH Value,[11]; 10 days,3.89
same,Comparative content of Compound 1 (%),[12]; activated charcoal added 0,109.0%
same,pH Value,"[12]; activated charcoal added 0, boiled 25 min, filtered, sterilized",3.96
same,Comparative content of Compound 1 (%),[12]; [20],108.8%
same,pH Value,[12]; [20],3.88
same,Comparative content of Compound 1 (%),[12]; [21],109.2%
same,pH Value,[12]; [21],3.88
same,Comparative content of Compound 1 (%),[12]; [22],63.9%
same,pH Value,[12]; [22],3.80
same,MIC90,MRSA; ciprofloxacin-resistant MRSA clinical isolates,1 µg/mL
same,MIC90,MRSA; ciprofloxacin-sensitive MRSA clinical isolates,0.06 µg/mL
